Results: patent US20240317749A1, “THERAPEUTIC COMPOUNDS” (priority 2021, published 2024)
Converted amounts (≈) assume the structure as drawn.

Tests used:
P. aeruginosa ATCC 27853 = assay: MIC assay, CLSI broth microdilution in CAMH broth; format: cell-based, Pseudomonas aeruginosa; settings: P. aeruginosa ATCC 278538
Procedure: (§1) MIC assays for various Gram-negative and Gram-positive strains were conducted in accordance with the CLSI guidelines for broth microdilution. A 96-well plate containing CAMH broth with 2-fold serial dilution of compounds was inoculated with log-phase bacterial at 5×10^5 CFU/mL. The final volume in each well was 100 μL. Each compound was tested in duplicate. The microtiter plates were incubated in an aerobic environment for 18 hours at 37° C. Then the bacterial growth was tested by reading the plate with a SpectraMax iD5 plate reader (Molecular Devices, Inc.) at 600 nm. The MIC was defined as the lowest compound concentration that inhibited bacteria growth.
(§2) The following Gram-negative and Gram-positive strains were used in the aerobic MIC procedure: • P. aeruginosa ATCC 27853 • A. baumannii ATCC 19606 • E. coli ATCC 25922 • E. coli W4573 • E. coli N43 • K. pneumoniae ATCC 10031 • K. pneumoniae ATCC 13883 • S. sonnei ATCC 29930 • P. mirabilis ATCC 29906 • Methicillin-susceptible S. aureus (MSSA) ATCC 19636 • Methicillin-resistant S. aureus (MRSA) ATCC 33951

P. mirabilis ATCC 29906 = assay: MIC assay, CLSI broth microdilution in CAMH broth; format: cell-based, Proteus mirabilis
Procedure: as §1, §2

[1] = tested on: Methicillin-susceptible S. aureus (MSSA) ATCC 19636; assay: MIC assay, CLSI broth microdilution in CAMH broth; format: cell-based, Staphylococcus aureus
Procedure: as §1, §2

[2] = tested on: N. gonorrhoeae ATCC 49226; assay: MIC assay for N. gonorrhoeae, broth microdilution in Todd-Hewitt (TH) broth; format: cell-based; settings: Neisseria gonorrhoeae, ATCC49226; Antibacterial Activity against N. gonorrhoeae ATCC 49226 in TH
Excerpt: MIC assays for N. gonorrhoeae were done using the ATCC 49226 strain. The procedure guidelines recommended by the Clinical and Laboratory Standards Institute (CLSI) for the broth microdilution MIC assay were modified by substituting […]. Also, the recommended bacterial inoculum was modified to meet the high inoculum demands needed for N. gonorrhoeae growth. A 96-well plate containing TH broth with 2-fold serial dilution of compounds was inoculated with log-phase bacterial at 2.5×10^7 CFU/mL. The final volume in each well was 200 μL. Each compound was tested in duplicate. The microtiter plates were incubated in an […] environment for 24 hours at 37° C. using the candle jar technique. Then the bacterial growth was tested by reading the plate with a SpectraMax iD5 plate reader (Molecular Devices, Inc.) at 600 nm. The MIC was defined as the lowest compound concentration that inhibited bacteria growth.

K. pneumoniae ATCC 13883 = assay: MIC assay, CLSI broth microdilution in CAMH broth; format: cell-based, Klebsiella pneumoniae; settings: K. pneumonias ATCC 13883
Procedure: as §1, §2

K. pneumoniae ATCC 10031 = assay: MIC assay, CLSI broth microdilution in CAMH broth; format: cell-based, Klebsiella pneumoniae; settings: K. pneumonias ATCC 10031
Procedure: as §1, §2

E. coli W4573 = assay: MIC assay, CLSI broth microdilution in CAMH broth; format: cell-based, Escherichia coli
Procedure: as §1, §2

[3] = tested on: Methicillin-resistant S. aureus (MRSA) ATCC 33591; assay: MIC assay, CLSI broth microdilution in CAMH broth; format: cell-based, Staphylococcus aureus
Procedure: as §1, with “growth. […]” for “growth.”

E. coli N43 = assay: MIC assay, CLSI broth microdilution in CAMH broth; format: cell-based, Escherichia coli
Procedure: as §1, §2

E. coli ATCC 25922 = assay: MIC assay, CLSI broth microdilution in CAMH broth; format: cell-based, Escherichia coli
Procedure: as §1, §2

Compound	Intrinsic MIC in CAMH (P. aeruginosa ATCC 27853)	Intrinsic MIC in CAMH (P. mirabilis ATCC 29906)	Intrinsic MIC in CAMH [1]	MIC [2]	Intrinsic MIC in CAMH (K. pneumoniae ATCC 13883)	Intrinsic MIC in CAMH (K. pneumoniae ATCC 10031)	Intrinsic MIC in CAMH (E. coli W4573)	Intrinsic MIC in CAMH [3]	Intrinsic MIC in CAMH (E. coli N43)	Intrinsic MIC in CAMH (E. coli ATCC 25922)
C#Cc1ccc(Cn2ccc3c4nc(N)nc(N)c4ccc32)cc1 [Example 42, 7-(4-ethynylbenzyl)-7H-pyrrolo[2,3-h]quinazoline-2,4-diamine]	>64¤	32¤	≤0.063¤	8 µg/mL (≈ 25.5 µM)	32¤	<0.125¤	4¤	≤0.063¤		
Nc1nc(N)c2ccc3c(ccn3Cc3ccc(C#Cc4ccccc4)cc3)c2n1 [Example 43, 7-(4-(phenylethynyl)benzyl)-7H-pyrrolo[2,3-h]quinazoline-2,4-diamine]	>64¤	>64¤	32¤	> 64 µg/mL	>64¤	>64¤	>64¤	2¤	32¤	
N#Cc1cc(F)ccc1-c1ccc(Cn2ccc3c4nc(N)nc(N)c4ccc32)cc1 [Example 37, 4′-((2,4-diamino-7H-pyrrolo[2,3-h]quinazolin-7-yl)methyl)-4-fluoro-[1,1′-biphenyl]-2-carbonitrile]	>64¤	>64¤	0.125¤	1 µg/mL (≈ 2.45 µM)	>64¤	0.25¤	8¤	0.125¤	<0.125¤	
Nc1nc(N)c2ccc3c(ccn3Cc3ccccc3Br)c2n1 [Example 4, 7-(2-bromobenzyl)-7H-pyrrolo[2,3-h]quinazoline-2,4-diamine]	>64¤	>64¤	≤0.125¤	2 µg/mL (≈ 5.43 µM)	8¤	<0.125¤	2¤	≤0.125¤		4¤
Nc1nc(N)c2ccc3c(ccn3Cc3cccc(C#Cc4ccccc4C(F)(F)F)c3)c2n1 [Example 45, 7-(3-((2-(trifluoromethyl)phenyl)ethynyl)benzyl)-7H-pyrrolo[2,3-h]quinazoline-2,4-diamine]	>64¤	>64¤	2¤		>64¤	>64¤	>64¤	2¤	32¤	
Nc1nc(N)c2cnc3c(ccn3Cc3cccc(Br)c3)c2n1 [Example 50, 7-(3-bromobenzyl)-7H-pyrrolo[3′,2′:5,6]pyrido[4,3-d]pyrimidine-2,4-diamine]	>64¤	>64¤	≤0.063¤		>64¤	1¤	32¤	≤0.063¤	≤0.063¤	
Nc1nc(N)c2ccc3c(ccn3CC#Cc3ccccc3)c2n1 [Example 41, 7-(3-phenylprop-2-yn-1-yl)-7H-pyrrolo[2,3-h]quinazoline-2,4-diamine]	>64¤	>64¤	0.5¤	8 µg/mL (≈ 25.5 µM)	8¤	<0.125¤	2¤	1¤		
N#Cc1ccccc1-c1ccc(Cn2ccc3c4nc(N)nc(N)c4cnc32)cc1 [Example 49, 4′-((2,4-diamino-7H-pyrrolo[3′,2′:5,6]pyrido[4,3-d]pyrimidin-7-yl)methyl)-[1,1′-biphenyl]-2-carbonitrile]	>64¤	>64¤	≤0.063¤		>64¤	0.5¤	>64¤	≤0.063¤	<0.125¤	
Nc1nc(N)c2ccc3c(ccn3Cc3cccc(C#Cc4ccccc4)c3)c2n1 [Example 44, 7-(3-(phenylethynyl)benzyl)-7H-pyrrolo[2,3-h]quinazoline-2,4-diamine]	>64¤	>64¤	2¤		>64¤	32¤	>64¤	1¤	4¤	
N#Cc1ccccc1-c1ccc(Cn2ccc3c4nc(N)nc(N)c4ccc32)c(F)c1 [Example 39, 4′-((2,4-diamino-7H-pyrrolo[2,3-h]quinazolin-7-yl)methyl)-3′-fluoro-[1,1′-biphenyl]-2-carbonitrile]	>64¤	>64¤	≤0.063¤		>64¤	1¤	8¤	≤0.063¤	≤0.063¤	
Nc1nc(N)c2ccc3c(ccn3CC3CCCCC3)c2n1 [Example 27, 7-(cyclohexylmethyl)-7H-pyrrolo[2,3-h]quinazoline-2,4-diamine]	>64¤	>64¤	≤0.125¤	4 µg/mL (≈ 13.5 µM)	4¤	<0.125¤	2¤	≤0.125¤		4¤
Nc1nc(N)c2ccc3c(ccn3Cc3cc(Br)ccc3F)c2n1 [Example 34, 7-(5-bromo-2-fluorobenzyl)-7H-pyrrolo[2,3-h]quinazoline-2,4-diamine]	>64¤	64¤	≤0.063¤	16 µg/mL (≈ 41.4 µM)	64¤	<0.125¤	2¤	≤0.063¤		
Nc1nc(N)c2ccc3c(ccn3Cc3ccc(Br)cc3Br)c2n1 [Example 35, 7-(2,4-dibromobenzyl)-7H-pyrrolo[2,3-h]quinazoline-2,4-diamine]	>64¤	>64¤	0.5¤	4 µg/mL (≈ 8.95 µM)	>64¤	0.25¤	8¤	1¤	<0.125¤	
N#Cc1ccccc1-c1ccc(Cn2ccc3c4nc(N)nc(N)c4ccc32)cc1F [Example 38, 4′-((2,4-diamino-7H-pyrrolo[2,3-h]quinazolin-7-yl)methyl)-2′-fluoro-[1,1′-biphenyl]-2-carbonitrile]	>64¤	>64¤	≤0.063¤	0.125 µg/mL (≈ 0.306 µM)	16¤	<0.125¤	1¤	≤0.063¤		
Nc1nc(N)c2ccc3c(ccn3Cc3ccc(-c4ccccc4C(F)(F)F)cc3)c2n1 [Example 36, 7-((2′-(trifluoromethyl)-[1,1′-biphenyl]-4-yl)methyl)-7H-pyrrolo[2,3-h]quinazoline-2,4-diamine]	>64¤	>64¤	0.5¤	8 µg/mL (≈ 18.5 µM)	>64¤	1¤	8¤	0.5¤	<0.125¤	
